Source: patent US12091708B2, “Compositions and methods targeting the Th2 pathway for the treatment of asthma” (THE CHILDREN'S HOSPITAL OF PHILADELPHIA, priority 2017, dated 2024)

Target: T1, CRTH2 receptor (Homo sapiens, UniProt Q9Y5Y4)
T1 construct: CD3+ cells were isolated from the rested PBMCs using Human T-Expander CD3/CD28 Dynabeads; endogenous in cells; host or cells: primary human CD3+/CD28+ T cells purified from PBMCs of healthy volunteers, expanded 10 days under TH2-skewing conditions
T1 sequence (Q9Y5Y4 1-395): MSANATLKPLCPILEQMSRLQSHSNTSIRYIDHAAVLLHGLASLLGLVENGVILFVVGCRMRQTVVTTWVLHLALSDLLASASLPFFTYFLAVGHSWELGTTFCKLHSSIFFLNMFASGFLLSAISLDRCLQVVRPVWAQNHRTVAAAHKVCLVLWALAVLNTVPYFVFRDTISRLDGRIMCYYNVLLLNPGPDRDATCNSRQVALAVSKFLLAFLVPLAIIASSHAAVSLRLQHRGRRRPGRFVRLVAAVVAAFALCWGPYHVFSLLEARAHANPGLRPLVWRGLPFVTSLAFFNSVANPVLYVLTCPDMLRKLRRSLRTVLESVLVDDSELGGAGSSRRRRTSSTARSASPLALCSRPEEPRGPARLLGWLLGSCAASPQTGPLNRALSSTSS
Test: CRTH2 assay: IL-13 expression (qPCR) in expanded, TH2-skewed T cells stimulated with PGD2 with or without CD3/CD28
Type: cell-based
Conditions: T cells from healthy human volunteers, increasing concentrations of PGD2, with CD3/CD28 stimulation (FIG. 4)
Method: As discussed above, CRTH2 is a key regulator of TH2 cytokine expression and action. We developed a CRTH2 assay to determine the effects of the SNP, rs2786098, on CRTH2 expression and action. The CRTH2 assay was developed using the following protocol. PBMCs were thawed and placed into 10 ml of RPMI+20% FBS in 15 ml conical tubes. Tubes were closed tightly, and placed on a rocker in the incubator overnight. Viable cell counts were obtained the following day. CD3+ cells were isolated from the rested PBMCs using Human T-Expander CD3/CD28 Dynabeads. These magnetic beads were used to purify CD3+/CD28+ T cells from the PBMC mixture, and then left in the cell culture to provide stimulation and co-stimulation to induce expansion of the T cells. Purified T cells were cultured with the beads in the presence of IL-2, IL-4, anti-IFNγ, and anti-IL-12. IL-2 provides a proliferative stimulus, while IL-4, anti-IFNγ, and anti-IL-12 provide TH2 skewing conditions. Cells were cultured, and culture volume was increased as required, for 10 days, at which point, they were stimulated at 500,000 cells per well with the indicated stimuli for 8 hours. Cell pellets were harvested and RNA was extracted. Gene expression was determined by qPCR. […]

CCCCC[C@H](O)/C=C/[C@H]1C(=O)C[C@H](O)[C@@H]1C/C=C\CCCC(=O)O [PGD2, Prostaglandin D2] was tested, and the “IL-13 production on stimulation” value was “additional IL-13 was produced”.
